Experimental data published in patent publication US20110111016A1, “NON-DNA BASE-CONTAINING POLYNUCLEOTIDE COMPOSITIONS AND THEIR USE FOR THE MODULATION OF IMMUNE RESPONSES” (priority 2009, published 2011).
Strand notation (5' to 3'): a small letter for the sugar, then the base; units joined by * are phosphorothioate-linked, units joined directly phosphodiester-linked; [ ] holds rarer units or linkages, { } end groups; capitals alone tell only the bases. d = 2'-deoxy (DNA)

What was measured:
Format in all cases: cell-based
[1] = tested on: human PBMC; assay: Induction of cytokines and chemokines from human PBMC, comparison with CpG polynucleotides (Milliplex MAP kit); settings: for Cytokine, IL-6 / Cytokine, IL-10 / Cytokine, MCP-1 / Cytokine, RANTES (CCL5): human PBMC culture supernatant, 48 h, final concentration 10 μg/mL; for Chemokine (MCP-1, RANTES) inducing activity towards human PBMC (in words) / Interleukin (cytokine) inducing activity towards human PBMC (in words): in comparison to LPS and MCC, Table 14
Method: LPS and MCC were included as positive controls as described in Example 7. PBMC were isolated from whole blood using standard Ficoll-Paque Plus (GE Healthcare Life Sciences, Baie d'Urfé, QC, Canada) gradient centrifugation, and placed in tissue culture plates at a concentration of 1×10^6 cells/mL (total volume: 1 mL in RPMI 1640 medium containing 10% heat-inactivated FBS (both from Wisent, St-Bruno, QC, Canada) and 50 μg/mL gentamycin sulfate (Sigma-Aldrich Canada, Oakville, ON, Canada). Non-DNA base-containing polynucleotide SEQ ID NOs: 1, 2, 3, 4, 5, 6, 7, 8 and 9 were added to separate wells to give a final concentration of 10 μg/mL, LPS was added to give a final concentration of 10 μg/mL, and the non-CpG 4010, CpG 2336, CpG 2429 and CpG 7909 polynucleotides, SEQ ID NOs: 31, 33, 35 and 34, respectively, were added to give a final concentration of 10 μg/mL.
The cells were then cultivated for 48 h. Cytokines (interleukins IL-6 and IL-10, chemokines MCP-1 and RANTES) in the culture supernatant were measured using a Milliplex™ MAP kit (Millipore Corporation, Billerica, Mass., USA) on a Bio-Plex 200 system (Bio-Rad Laboratories, Hercules, Calif., USA). MCP-1, also known as monocyte chemotactic protein, is an essential chemokine required for effective monocyte and myeloid dendritic cell activation and trafficking across endothelial and epithelial barriers (see for example Henkel et al, 2004 Ann. Neurol. 55:221-235), and RANTES (Regulated on Activation, Normal T cell Expressed and Secreted, now more commonly known as CCL5) is produced by memory phenotype T cells and is chemotactic for and activates T-cells (see for example Swanson et al, 2002 Immunity 17:605-615).

[2] = tested on: human PBMC; assay: Induction of cytokines from human PBMC (ELISA cytokine capture assay); settings: PBMC of 3 healthy adults, 48 h; increase two-fold that of background control; SEQ ID NOs 1-3 100 μg/mL, CpG 2006 and MCC 1-100 μg/mL, LPS 10 μg/mL
Source text: A number of immune adjuvants are known to be capable of eliciting cytokines from human PBMC cells. Examples of such adjuvants are alum, lipopolysaccharide, monophosphoryl lipid A, CpG-containing polynucleotides and non-CpG-containing ODN's, as well as mycobacterial cell wall-DNA complex (MCC). […] PBMC were isolated from whole blood using standard Ficoll-Paque (GE Healthcare Life Sciences, Baie d'Urfé, QC, Canada) gradient centrifugation, and placed in tissue culture plates at a concentration of 10^6 cells/mL (total volume: 1 mL in RPMI 1640 medium containing 10% heat-inactivated FBS, both from Wisent, St-Bruno, QC, Canada) and 50 μg/mL gentamycin sulfate (Sigma-Aldrich Canada, Oakville, ON, Canada). SEQ ID NOs: 1, 2 or 3 were added to give a final concentration of 100 μg/mL, and the cells were cultivated for 48 h. Cytokines (IL-1β, IL-2, IL-6, IL-10 and IL-12p40) in the supernatant at the end of incubation were determined by ELISA using a cytokine capture assay process (Biosource, Camarillo, Calif.). SEQ ID NO: 32 CpG 2006 ODN (1-100 μg/mL, 5′-[…]-3′, […]), MCC (1-100 μg/mL) and LPS (10 μg/mL) were used as positive controls.

[3] = target: T1, human TLR9 (Homo sapiens, UniProt Q9NR96); assay: NF-κB activation (secreted alkaline phosphatase reporter) in HEK293 cells expressing human TLR9; settings: HEK293/hTLR9 cell line; at 100 ng/mL; 16-20 hours
T1 construct: host or cells: HEK293
T1 sequence (Q9NR96 26-1032): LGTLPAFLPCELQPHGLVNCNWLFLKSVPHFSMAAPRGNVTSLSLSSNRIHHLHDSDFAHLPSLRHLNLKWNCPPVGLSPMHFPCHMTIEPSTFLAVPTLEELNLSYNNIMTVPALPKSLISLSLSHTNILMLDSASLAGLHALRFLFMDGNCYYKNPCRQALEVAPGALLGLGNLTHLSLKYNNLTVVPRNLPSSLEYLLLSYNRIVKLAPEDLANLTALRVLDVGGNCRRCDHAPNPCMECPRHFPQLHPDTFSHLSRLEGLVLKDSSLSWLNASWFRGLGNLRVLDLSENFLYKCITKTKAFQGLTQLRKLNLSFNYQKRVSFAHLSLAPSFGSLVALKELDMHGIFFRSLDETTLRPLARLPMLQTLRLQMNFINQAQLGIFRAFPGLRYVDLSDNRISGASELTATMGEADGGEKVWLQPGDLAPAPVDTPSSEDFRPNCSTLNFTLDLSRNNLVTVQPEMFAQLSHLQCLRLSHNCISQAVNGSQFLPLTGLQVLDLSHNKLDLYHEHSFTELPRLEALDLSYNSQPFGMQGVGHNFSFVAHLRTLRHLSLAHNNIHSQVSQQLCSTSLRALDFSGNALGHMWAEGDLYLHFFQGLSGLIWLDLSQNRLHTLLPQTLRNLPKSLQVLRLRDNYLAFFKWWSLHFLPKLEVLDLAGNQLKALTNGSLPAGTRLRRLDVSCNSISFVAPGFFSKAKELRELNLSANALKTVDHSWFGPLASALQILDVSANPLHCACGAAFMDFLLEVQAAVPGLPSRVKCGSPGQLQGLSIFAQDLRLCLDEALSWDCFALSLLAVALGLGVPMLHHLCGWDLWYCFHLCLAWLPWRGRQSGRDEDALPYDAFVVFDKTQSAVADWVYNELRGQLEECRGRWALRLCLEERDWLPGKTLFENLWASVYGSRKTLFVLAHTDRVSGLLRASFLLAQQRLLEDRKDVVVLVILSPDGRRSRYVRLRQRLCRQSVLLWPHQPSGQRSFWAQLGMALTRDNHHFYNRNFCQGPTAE
Method: Toll-like receptors (TLR) are known to interact with a number of natural and synthetic molecules that can function as immune adjuvants. Examples of these molecules are Poly (I:C) polynucleotides, lipopolysaccharide and CpG-containing polynucleotides. The interaction of non-DNA base-containing polynucleotides (SEQ ID NOs: 1-3) to interact with TLR and induce down-stream signaling was tested by assessing NF-κB activation in HEK293 cells expressing human TLR2, 3, 4, 5, 7, 8 and 9. TLR engagement was determined by measurement of secreted alkaline phosphatase, under the control of a reporter inducible by NF-κB. Appropriate positive controls were used for each TLR. […] HEK293 cells containing the appropriate TLR and NF-κB reporting system (InvivoGen, San Diego, Calif., USA) were placed in wells of 96 well plates (25,000-50,000 cells, in a final volume of 200 μL medium designed for the detection of NF-κB induced secreted alkaline phosphatase expression), and incubated with non-DNA base-containing polynucleotides or positive controls for 16-20 hours. TLR activating activity was determined by measurement of absorbance at 650 nm wavelength using a Coulter AD340C absorbance detector. The results shown are expressed as Optical Density (OD).

Substance	Cytokine, IL-6 [1]	Cytokine, IL-10 [1]	Cytokine, MCP-1 [1]	Cytokine, RANTES (CCL5) [1]	Chemokine (MCP-1, RANTES) inducing activity towards human PBMC (in words) [1]	Interleukin (cytokine) inducing activity towards human PBMC (in words) [1]	Number of individuals responding, IL-1β [2]	Number of individuals responding, IL-2 [2]	Number of individuals responding, IL-6 [2]	Number of individuals responding, IL-10 [2]	Number of individuals responding, IL-12p40 [2]	TLR activation, Optical Density at 650 nm, hTLR9, positive control [3]
5′-TCGTCGTTTTCGGCGGCCGCCG-3′ (DNA dT*dC*dG*dT*dC*dG*dT*dT*dT*dT*dC*dG*dG*dC*dG*dG*dC*dC*dG*dC*dC*dG) [SEQ ID NO: 35, reference compound]	42 pg/mL	0 pg/mL	906 pg/mL	136 pg/mL	strong MCP-1 inducing activity	did not induce cytokines	–	–	–	–	–	–
5′-TGCTGCTTTTTGCTGGCTTTTT-3′ (DNA dT*dG*dC*dT*dG*dC*dT*dT*dT*dT*dT*dG*dC*dT*dG*dG*dC*dT*dT*dT*dT*dT) [SEQ ID NO: 31, reference compound]	43 pg/mL	0 pg/mL	343 pg/mL	275 pg/mL	had chemokine-inducing activity	–	–	–	–	–	–	–
GIG (DNA GNG; Central inosine, sugar and linkages not given here, further chemistry not given here) [SEQ ID NO: 6, 5′-OH, 3′-OH non-DNA base-containing polynucleotide]	0 pg/mL	0 pg/mL	48 pg/mL	137 pg/mL	marginal or no	marginal or no	–	–	–	–	–	–
GUG (DNA GNG; Central uracil in DNA, sugar and linkages not given here, further chemistry not given here) [SEQ ID NO: 8, 5′-OH, 3′-OH non-DNA base-containing polynucleotide]	0 pg/mL	0 pg/mL	78 pg/mL	78 pg/mL	marginal or no	marginal or no	–	–	–	–	–	–
5′-TCGTCGTTTTGTCGTTTTGTCGTT-3′ [SEQ ID NO: 32 CpG 2006, reference compound]	–	–	–	–	–	–	0/3	0/3	3/3	2/3	1/3	1.904
GGGTGGIII (DNA GGGTGGNNN; Three 3' inosines, sugar and linkages not given here, further chemistry not given here) [SEQ ID NO: 7, 5′-OH, 3′-OH non-DNA base-containing polynucleotide]	1 pg/mL	0 pg/mL	79 pg/mL	71 pg/mL	marginal or no	marginal or no	–	–	–	–	–	–
GGGTGGUUU (DNA GGGTGGNNN; Three 3' uracils, sugar and linkages not given here, further chemistry not given here) [SEQ ID NO: 9, 5′-OH, 3′-OH non-DNA base-containing polynucleotide]	133 pg/mL	1 pg/mL	914 pg/mL	117 pg/mL	strong MCP-1 inducing activity	–	–	–	–	–	–	–
GGGTGGNebNebNeb (DNA GGGTGGNNN; Three 3' nebularines, sugar and linkages not given here, further chemistry not given here) [SEQ ID NO: 5, 5′-OH, 3′-OH non-DNA base-containing polynucleotide]	845 pg/mL	13 pg/mL	3600 pg/mL	202 pg/mL	strong	strong	–	–	–	–	–	–
5′-TCGTCGTTTTGTCGTTTTGTCGTT-3′ [SEQ ID NO: 34, reference compound]	41 pg/mL	2 pg/mL	1270 pg/mL	187 pg/mL	strong MCP-1 inducing activity	did not induce cytokines	–	–	–	–	–	–
GNebG (DNA GNG; Central nebularine, sugar and linkages not given here, further chemistry not given here) [SEQ ID NO: 4, 5′-OH, 3′-OH non-DNA base-containing polynucleotide]	1960 pg/mL	28 pg/mL	7000 pg/mL	211 pg/mL	strong	strong	–	–	–	–	–	–
5′-GGGGACGACGTCGTCGGGGGG-3′ (DNA dG*dG*dG*dG*dA*dC*dG*dA*dC*dG*dT*dC*dG*dT*dC*dG*dG*dG*dG*dG*dG) [SEQ ID NO: 33, reference compound]	9 pg/mL	0 pg/mL	573 pg/mL	105 pg/mL	strong MCP-1 inducing activity	did not induce cytokines	–	–	–	–	–	–
